Assay results reported in US4748161A, “Triterpenyl esters of organic acids and hypolipidemic agents composed of them” (Amano Pharmaceutical Co., Ltd., priority 1984, dated 1988).
Like-named read-outs stand apart in the source and are kept apart here.

What was measured:
[1] = Body weight of rats in method B; set-up: species or system male Wistar strain rats; settings: rat, in vivo
Experimental: (§1) Male Wistar strain rats (100±1 g, each 8 rats were formed into a group except that the control group fed with a hyperlipidemic diet was formed of 16 rats) were used as test animals. A powdery diet (CE-2, supplied by Clea Japan, Inc.) was used as ordinary diet. The hyperlipidemic diet was prepared by fortifying the ordinary diet with cholesterol (1%) and cholic acid (0.5%). Each test compound (1%) for administration was admixed with the hyperlipidemic diet. Each two rats were kept in a cage and given the prescribed diet and water ad libitum. Thus the rats were fed for 4 weeks at a constant temperature of 23±1° C. and a constant R.H. of 55±5%. Finally, the rats were fasted from food except water for 16 hours (from 4 p.m. of the 28th test day to 8 a.m. of the 29th test day), and under anesthesia with pentbarbital sodium (tradename: Nembutal), blood was taken from each rat through the descending abdominal arota. Then, TC, HDL-C, TG, PL, and LPO in the serum were measured in the following manner.

[2] = test system: serum lipids and serum lipid hydroperoxide; test: Pharmacological test method B for anti-hyperlipidemic activity (serum lipids, 4 weeks feeding); assay type: in vivo, male Wistar strain rats; set-up: AI Diff.: unit not given here; settings: for AI [(TC - HDL-C)/(HDL-C)] / HDL-C in serum / LPO in serum / PL in serum / TC in serum / TG in serum: 1% in hyperlipidemic diet, 4 weeks; for change in vivo at 1 % in diet: Rattus norvegicus, po, 672 h; for change in vivo at 1 % in diet / AI Diff. / HDL-C Diff. / LPO Diff. / PL Diff. / TC % of diff. / TC Diff. / TG Diff.: versus control group
Experimental: Pharmacological test method B for anti-hyperlipidemic acitivity (the term "method B" was used in the present specification)
as §1
A TC kit-K (supplied by Nippon Shoji Kaisha, Ltd.) was used. The principle of this determination is as follows: The ester of cholesterol in the serum is hydrolyzed with cholesterol-ester hydrolase into free cholesterol and fatty acids. All the free cholesterol is oxidized with cholesterol oxydase to form Δ^4 -cholestenone and hydrogen peroxide. Phenol and 4-aminoantipyrin are oxidatively condensed together by the formed hydrogen peroxide and peroxydase. The produced red quinone coloring matter is measured by colorimetry for absorbance at 500 nm using a spectrophotometer, thereby determining the TC:
The color-developing liquid (3.0 ml) is well mixed with the sample serum (0.02 ml). The mixture once heated at 37° C. for 15 minutes, is measured for absorbance at 500 nm with a spectrophotometer. The found absorbance is denoted by EA. On the other hand, the color-developing liquid (3.0 ml) is well mixed with the standard solution. The mixture is treated and measured for absorbance at 500 nm in the same manner as the above. This found absorbance is denoted by ES. Both EA and ES are determined with reference to the value of the blank test conducted using the color-developing liquid (3.0 ml) alone. [formula]
An HDL-C kit-N (supplied by Nippon Shoji Kaisha, Ltd.) was used. […] (VLDL) and lo density lipoprotein (LDL) in the serum is precipitated by the action of heparin. The precipitate is separated by centrifugation. High density lipoprotein (HDL) is dissolved in the separated supernatant. Esters of cholesterol in this fraction is hydrolyzed with cholesterol-ester hydrolase into free cholesterol and fatty acids. All the free cholesterol is oxidized with cholesterol oxydase to form Δ^4 -cholestenone and hydrogen peroxide. Phenol and 4-aminoantipyrine are oxidatively condensed together by the formed hydrogen peroxide and peroxydase. The produced red quinone coloring matter is measured by colorimetry for absorbance at 500 nm using a spectrophotometer, thereby determining the HDL-C.
A PL kit-K (supplied by Nippon Shoji Kaisha, Ltd.) was used for the determination. Lecithin, sphingomyelin, and lysolecithin are decomposed by phospholipase D into choline and phosphatidic acid, N-acylsphingosyl phosphate, or lysophosphatidic acid, respectively. The resulting choline is quantitatively decomposed by choline oxydase into hydrogen peroxide and betaine. With this hydrogen peroxide, and aid of peroxydase, phenol and 4-aminoantipyrin are condensed into red quinone pigment, then the absorbance at 500 nm of which is measured with a spectrophotometer, thereby determining the PL. […]

| SMILES | Body weight during feed period, 1st day [1] | Body weight during feed period, 8th day [1] | Body weight during feed period, 15th day [1] | Body weight during feed period, 22nd day [1] | Body weight during feed period, 28th day [1] | Body weight just before blood sampling, 29th day [1] | AI [(TC - HDL-C)/(HDL-C)] [2] | HDL-C in serum [2] | LPO in serum [2] | PL in serum [2] | TC in serum [2] | TG in serum [2] | change in vivo at 1 % in diet ([2]; read-out: AI % of diff.) | change in vivo at 1 % in diet ([2]; read-out: HDL-C % of diff.) | change in vivo at 1 % in diet ([2]; read-out: LPO % of diff.) | change in vivo at 1 % in diet ([2]; read-out: PL % of diff.) | change in vivo at 1 % in diet ([2]; read-out: TG % of diff.) | AI Diff. [2] | HDL-C Diff. [2] | LPO Diff. [2] | further results |
| --- | --- | --- | --- | --- | --- | --- | --- | --- | --- | --- | --- | --- | --- | --- | --- | --- | --- | --- | --- | --- | --- |
| CCCOc1cc(C=C(C)C(=O)OC2CCC34CC35CCC3(C)C(C(C)CCC=C(C)C)CCC3(C)C5CCC4C2(C)C)ccc1O (stereo not drawn) [Example 146, cycloartenyl ester of 4-hydroxy-3-propoxy-α-methylcinnamic acid] | 106 ± 5.9 g | 149 ± 11.0 g | 193 ± 17.5 g | 243 ± 15.8 g | 271 ± 20.2 g | 258 ± 19.1 g | 7.479 | 23.4 mg/dL | 2.02 nmol/mL | 97.6 mg/dL | 198.4 mg/dL | 51.4 mg/dL | -65.6% | 73.3% | -28.4% | -30.3% | -9% | -14.28 | +9.9 mg/dl | -0.80 nmol/mL | PL Diff. [2]: -42.5 mg/dL; TC % of diff. [2]: -38.1%; TC Diff. [2]: -108.9 mg/dL; TG Diff. [2]: -5.1 mg/dL |
| COc1cc(C=C(C)C(=O)OC2CCC34CC35CCC3(C)C(C(C)CCC=C(C)C)CCC3(C)C5CCC4C2(C)C)ccc1O (stereo not drawn) [Example 114, cycloartenyl ester of 4-hydroxy-3-methoxy-α-methylcinnamic acid] | 105 ± 3.3 g | 145 ± 9.5 g | 194 ± 18.0 g | 247 ± 16.6 g | 277 ± 14.9 g | 265 ± 14.5 g | 4.711 | 24.2 mg/dL | 2.04 nmol/mL | 96.7 mg/dL | 138.2 mg/dL | 39.0 mg/dL | -78.4% | 79.3% | -27.7% | -31% | -31% | -17.05 | +10.7 mg/dl | -0.78 nmol/mL | PL Diff. [2]: -43.4 mg/dL; TC % of diff. [2]: -55.0%; TC Diff. [2]: -169.1 mg/dL; TG Diff. [2]: -17.5 mg/dL |
| COc1cc(C=C(C)C(=O)OC2CCC34CC35CCC3(C)C(C(C)CCC=C(C)C)CCC3(C)C5CCC4C2(C)C)ccc1N (stereo not drawn) [Example 189, Cycloartenyl ester of 4-amino-3-methoxy-α-methylcinnamic acid] | 104 ± 3.8 g | 142 ± 8.1 g | 188 ± 12.6 g | 239 ± 20.6 g | 268 ± 22.7 g | 256 ± 20.2 g | 4.071 | 35.4 mg/dL | 2.05 nmol/mL | 115.0 mg/dL | 179.5 mg/dL | 58.4 mg/dL | – | – | – | – | – | – | – | – | – |
| C=C(CCC(C)C1CCC2(C)C3CCC4C(C)(C)C(OC(=O)C(C)=Cc5ccc(N)c(OC)c5)CCC45CC35CCC12C)C(C)C (stereo not drawn) [Example 191, 24-Methylenecycloartanyl ester of 4-amino-3-methoxy-α-methylcinnamic acid] | 104 ± 3.7 g | 142 ± 9.6 g | 188 ± 12.9 g | 239 ± 14.9 g | 268 ± 21.7 g | 257 ± 20.6 g | 5.634 | 28.4 mg/dL | 2.08 nmol/mL | 117.3 mg/dL | 188.4 mg/dL | 60.4 mg/dL | – | – | – | – | – | – | – | – | – |
